Legend:
Experiment in all cases: relative viability (nuclei count vs DMSO), 5 days (fraction); higher = more cells survive
[1] = compound: N#CC1(c2ccc(NC(=O)c3cccnc3NCc3ccncc3)cc2)CCCC1 [Apatinib] + Cc1nc(Nc2ncc(C(=O)Nc3c(C)cccc3Cl)s2)cc(N2CCN(CCO)CC2)n1 [Dasatinib] (partner 0.075 µM)
How it was run: (§1)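 For relative viability, nuclei counts in treated wells were divided by those in vehicle wells. Lung cancer cell lines had been pin-tool dosed in 1536-well plates the day after seeding and cultured for 5 days, then fixed and stained in one step (final 0.05% Triton X-100, 1% formaldehyde, 1 ug/ml Hoechst) and imaged at 4×. Doses were one drug alone or a fixed anchor-drug dose plus five library-drug doses (not always all listed) in √10 steps, and values are duplicate-plate medians.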

[2] = compound: N#CC1(c2ccc(NC(=O)c3cccnc3NCc3ccncc3)cc2)CCCC1 [Apatinib] + CC(=O)c1c(C)c2cnc(Nc3ccc(N4CCNCC4)cn3)nc2n(C2CCCC2)c1=O [Palbociclib] (partner 0.5 µM)
How it was run: as §1

[3] = compound: CN(C)C(=N)NC(=N)N [Metformin] + Cc1nc(Nc2ncc(C(=O)Nc3c(C)cccc3Cl)s2)cc(N2CCN(CCO)CC2)n1 [Dasatinib] (partner 0.075 µM)
How it was run: as §1

[4] = compound: CN(C)C(=N)NC(=N)N [Metformin] + Cc1cc(Nc2cc(N3CCN(C)CC3)nc(Sc3ccc(NC(=O)C4CC4)cc3)n2)n[nH]1 [Tozasertib] (partner 0.1 µM)
How it was run: as §1

## NCI-H460
[1]; first compound 0.08 µM
  relative viability: 0.468
[1]; first compound 0.253 µM
  relative viability: 0.477
[1]; first compound 0.8 µM
  relative viability: 0.426
[1]; first compound 2.53 µM
  relative viability: 0.487
[1]; first compound 8 µM
  relative viability: 0.413
[2]; first compound 0.08 µM
  relative viability: 0.188
[2]; first compound 0.253 µM
  relative viability: 0.191
[2]; first compound 0.8 µM
  relative viability: 0.103
[2]; first compound 2.53 µM
  relative viability: 0.182
[2]; first compound 8 µM
  relative viability: 0.137
[3]; first compound 10 µM
  relative viability: 0.402
[3]; first compound 31.62 µM
  relative viability: 0.546
[3]; first compound 100 µM
  relative viability: 0.353
[3]; first compound 316.23 µM
  relative viability: 0.43
[3]; first compound 1000 µM
  relative viability: 0.457
[4]; first compound 31.62 µM
  relative viability: 0.59
[4]; first compound 100 µM
  relative viability: 0.645
[4]; first compound 316.23 µM
  relative viability: 0.187
[4]; first compound 1000 µM
  relative viability: 0.734

Source: the supplement of paper PMC10307832
